Several values for one entry are separate records, joined by “and”; a condition that tells them apart may be missing. Identical values can stand only once.
Columns and labels:
[1] = system: RS4;11 cell line; assay: Cell viability, RS4;11 cells; format: cell-based; conditions: RS4;11, 48 h
Description: Figure 4 Indole-2-carboxylic acids induce the hallmarks of apoptosis in MCL-1-dependent cancer cell line H929. (a) Digitonin-permeabilized H929 cells were treated with 10 μM BH3 peptides for 4 h, and intact H929 cells were incubated with increasing concentrations (0.1–10 μM) of A-1208746 for 4 h before assessing the levels of cytochrome c released into the cytosol. (b) H929 and RS4;11 cells were incubated with increasing concentrations of MCL-1 inhibitors or the BCL-2-selective inhibitor ABT-199 (venetoclax) for 48 h before determining cell viability. Cell killing IC50s are plotted with each value representing the mean of three separate experiments. Error bars represent the S.E.M. (c) H929 cells were incubated with increasing concentrations of MCL-1 inhibitors in the presence or absence of the pan-caspase inhibitor QVD (100 μM) for 4 h before assessing caspase-3/-7 activation, mitochondrial membrane polarization, and the exposure of phosphatidylserine. […]
Adherent cell lines were seeded at 50 000 cells per well in 96-well plates and treated for 48 h with compounds diluted in half-log steps starting at 30 μM and ending at 0.001 μM. […] Effects on proliferation and viability were determined using CellTiter-Glo reagent from Promega (Madison, WI, USA) according to the manufacturer's instructions. IC50 values were determined by non-linear regression analysis of the concentration response data.

[2] = molecular target: T1, MCL-1 (Homo sapiens, UniProt Q07820); design: endogenous in cells; host or cells: HCC-1806; method as in PMID 25679114; conditions: in the presence of 10% human serum; cited from earlier work
T1 sequence (Q07820 whole entry): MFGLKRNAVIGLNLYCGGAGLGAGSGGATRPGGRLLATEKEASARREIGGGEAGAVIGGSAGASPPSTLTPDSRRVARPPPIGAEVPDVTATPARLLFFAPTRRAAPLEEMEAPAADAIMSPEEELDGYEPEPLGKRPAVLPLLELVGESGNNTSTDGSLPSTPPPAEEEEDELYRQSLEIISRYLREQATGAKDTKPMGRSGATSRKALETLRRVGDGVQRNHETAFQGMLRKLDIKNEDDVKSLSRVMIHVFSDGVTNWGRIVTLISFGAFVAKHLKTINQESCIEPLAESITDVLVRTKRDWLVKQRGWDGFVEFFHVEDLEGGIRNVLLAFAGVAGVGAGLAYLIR

[3] = system: H23 cells; assay: Navitoclax / A-1210477 combination cell viability, H23 cells; format: cell-based, human; conditions: H23, 48 h
Description: Figure 6 A-1210477 synergizes with navitoclax to kill hematological and solid tumor cell lines. BxPC-3, EJ-1, H23, and OPM-2 cells were treated with increasing concentrations of navitoclax in the presence or absence of increasing concentrations of A-1210477 for 48 h before assessing cell viability. All data points represent the means of triplicate experiments, with error bars indicating the S.E.M. TEXT PRINTED IN THE PICTURE: A-1210477 + navitoclax: Bliss sum (BxPC-3): 716; Bliss sum (EJ-1): 464; Bliss sum (H23): 76; Bliss sum (OPM-2): 946 DOUBTS OF THE COPYIST ABOUT THIS PICTURE: The Bliss sums apply to the combination of A-1210477 and navitoclax. The picture prints the two names separately (legend heading and axis title), not as one joined label.
Adherent cell lines were seeded at 50 000 cells per well in 96-well plates and treated for 48 h with compounds diluted in half-log steps starting at 30 μM and ending at 0.001 μM. Multiple myeloma cell lines were seeded at 15 000–20 000 cells per well and treated similarly. Effects on proliferation and viability were determined using CellTiter-Glo reagent from Promega (Madison, WI, USA) according to the manufacturer's instructions. IC50 values were determined by non-linear regression analysis of the concentration response data.

[4] = molecular target: BCL-XL (Homo sapiens, UniProt Q07817); assay: TR-FRET binding affinity assay, BCL-XL
Chain of BCL-XL (Q07817 whole entry): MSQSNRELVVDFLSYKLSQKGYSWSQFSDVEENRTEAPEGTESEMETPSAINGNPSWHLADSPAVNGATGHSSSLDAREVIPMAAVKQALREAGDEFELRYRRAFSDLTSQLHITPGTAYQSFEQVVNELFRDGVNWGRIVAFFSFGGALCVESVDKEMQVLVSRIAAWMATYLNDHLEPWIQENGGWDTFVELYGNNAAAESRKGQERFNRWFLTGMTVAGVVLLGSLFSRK
Description: (§1) TR-FRET-binding affinity assays were performed for BCL-2, BCL-XL, and MCL-1 in 4.52 mM monobasic potassium phosphate, 15.48 mM dibasic potassium phosphate, 1 mM sodium EDTA, 0.05% Pluronic F-68 detergent, 50 mM sodium chloride, and 1 mM DTT (pH 7.5) as described previously for BCL-XL.[6] For MCL-1 assays, GST-tagged MCL-1 (1 nM) was mixed with 100 nM f-Bak, 1 nM Tb-labeled anti-GST antibody, and compound at room temperature (RT) for 60 min. Fluorescence was measured on an Envision plate reader (Perkin-Elmer, Waltham, MA, USA) using a 340/35 nm excitation filter and 520/525 (f-Bak) and 495/510 nm (Tb-labeled anti-GST antibody) emission filters.

[5] = molecular target: T1, MCL-1; assay: TR-FRET binding affinity assay, MCL-1
Description: as §1

[6] = molecular target: T2, BCL-XL–BCL-XS interactions (Homo sapiens, UniProt Q07817); assay: Mammalian two-hybrid assay, BCL-XL–BCL-XS, HeLa cells; format: cell-based; conditions: 24 h, luciferase two-hybrid
T2 construct: expressed in transfected cells; host or cells: HeLa cells stably expressing a GAL4-luciferase reporter
T2 sequence (Q07817 whole entry, the tested form may be a part): as the sequence (Q07817 whole entry) above
Description: (§2) (a) H929 cells were treated with increasing concentrations of A-1210477 for 4 h. […] All data represent the mean of triplicate experiments, with error bars indicating the S.D. (b) Quantitative measurement of protein–protein interactions using a luciferase-based mammalian two-hybrid assay. […] All data represent the means of triplicate experiments, with error bars indicating the S.Ds.
(§3) HeLa cells stably expressing a GAL4-luciferase reporter were seeded into 10 cm dishes at 5 × 10^5 cells per plate. In all, 24 μg of a plasmid expressing both the ‘bait' and ‘prey' fusion proteins (GAL4DBD-BIM and VP16AD-BCL-2, GAL4DBD-BCL-XL and VP16AD- BCL-XS, or GAL4DBD-MCL-1 and VP16AD-NOXA, respectively) were mixed with 1.5 ml OptiMEM (Invitrogen). Separately, 24 μl Lipofectamine 2000 (Invitrogen) were mixed with 1.5 ml OptiMEM. Both solutions were incubated for 5 min (RT) and then mixed together for 20 min. Three milliliters of the mixture was added to cells in 12 ml culture medium lacking antibiotics, incubated at 37 °C for 24 h, and then transferred to 96-well plates at 20 000 cells per well. Compounds were added in half-log dilutions, starting from 1 μM and ending at 0.0001 μM for 24 h, and luciferase activity was assessed using ONE-Glo reagent (Promega). All data were plotted as the percentage of complex remaining relative to untreated controls.

[7] = molecular target: BCL-2 (Homo sapiens, UniProt P10415); assay: TR-FRET binding affinity assay, BCL-2
Chain of BCL-2 (P10415 whole entry): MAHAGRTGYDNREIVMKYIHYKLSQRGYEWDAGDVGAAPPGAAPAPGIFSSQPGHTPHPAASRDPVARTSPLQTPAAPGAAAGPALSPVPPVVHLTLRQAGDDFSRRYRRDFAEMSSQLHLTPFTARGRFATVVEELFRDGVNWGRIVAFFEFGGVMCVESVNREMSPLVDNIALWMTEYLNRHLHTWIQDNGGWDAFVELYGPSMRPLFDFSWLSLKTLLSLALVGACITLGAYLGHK
Description: as §1

[8] = molecular target: T3, MCL-1–NOXA interactions (Homo sapiens, UniProt Q07820); assay: Mammalian two-hybrid assay, MCL-1–NOXA, HeLa cells; format: cell-based; conditions: 24 h, luciferase two-hybrid
T3 construct: expressed in transfected cells; host or cells: HeLa cells stably expressing a GAL4-luciferase reporter
T3 sequence (Q07820 whole entry, the tested form may be a part): as the sequence (Q07820 whole entry) above
Description: as §2, §3

Cc1nn(C)c(COc2ccc(N3CCN(S(=O)(=O)N(C)C)CC3)cc2)c1-c1cccc2c(CCCOc3cccc4ccccc34)c(C(=O)O)n(CCN3CCOCC3)c12 [A-1210477]
effect on cell viability [1]: no effect | shift in MCL-1 affinity [2]: > 15 fold | potentiation of navitoclax [3]: substantially shifted the dose–response curve of navitoclax | Ki [4]: > 660 nM | Ki [5]: 0.4 to 0.5 nM and 0.454 nM | effect on BCL-XL–BCL-XS interactions [6]: no effect | Ki [7]: 132 nM | IC50 [8]: ~1000 nM
